# Source: US10189840B2, “Substituted tricyclic heterocyclic compounds” (BRISTOL-MYERS SQUIBB COMPANY, priority 2015, dated 2019)
# Target: TNFα (Homo sapiens (Human), UniProt P01375)
# Assay: TNF induced HEK-Blue assay
# Type: cell-based
# Settings: TNFα 0.5 ng/ml; HEK-Blue-CD40L cells, NF-κB-driven secreted alkaline phosphatase reporter; 18 h
# Procedure, shortened: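 Compounds at 0.004–25 μM final were preincubated 30 min with TNFα (0.5 ng/ml final) in DMEM/10% FBS. HEK-Blue-CD40L cells carrying an NF-κB-driven SEAP reporter (20,000/well) were then added for 18 h at 37 °C, 5% CO2, and SEAP was read by QUANTI-Blue at 620 nm. IC50 came from a 4-parameter logistic fit, normalized to unstimulated and stimulated DMSO controls.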
# Chain of TNFα (P01375 77-233): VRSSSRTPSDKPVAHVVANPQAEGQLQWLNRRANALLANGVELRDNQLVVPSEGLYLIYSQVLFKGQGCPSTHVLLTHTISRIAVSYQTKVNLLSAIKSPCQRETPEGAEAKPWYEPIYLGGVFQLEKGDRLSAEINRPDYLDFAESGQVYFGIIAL
row,IC50,SMILES
1,< 1000 nM,"Cc1ccc(C)c(C2CC(O)c3nc4ccc(-c5ccc(C(C)(C)O)cc5)nc4n32)c1 (stereo not drawn) [Example 4 (DM), 8-(2,5-dimethylphenyl)-2-(4-(2-hydroxypropan-2-yl)phenyl)-7,8-dihydro-6H-pyrrolo[2′,1′:2,3]imidazo[4,5-b]pyridin-6-ol]"
2,< 1000 nM,"Cc1ccc(C)c(C2CC(O)c3nc4ccc(-c5cnc(C(C)(C)O)nc5)nc4n32)c1 (stereo not drawn) [Example 5 (DM), 8-(2,5-dimethylphenyl)-2-(2-(2-hydroxypropan-2-yl)pyrimidin-5-yl)-7,8-dihydro-6H-pyrrolo[2′,1′:2,3]imidazo[4,5-b]pyridin-6-ol]"
3,< 1000 nM,"Cc1ccc(C)c(C2CC(O)c3nc4ccc(-c5cnc(N6CCOCC6)nc5)nc4n32)c1 (stereo not drawn) [Example 6 (DM), 8-(2,5-dimethylphenyl)-2-(2-morpholinopyrimidin-5-yl)-7,8-dihydro-6H-pyrrolo[2′,1′:2,3]imidazo[4,5-b]pyridin-6-ol]"
4,1000 to 10000 nM,"Cc1ccc(C(F)(F)F)cc1C1CC(O)c2nc3ccc(-c4ccc(C(C)(C)O)cc4)nc3n21 (stereo not drawn) [Example 7 (DM), 2-(4-(2-hydroxypropan-2-yl)phenyl)-8-(2-methyl-5-(trifluoromethyl)phenyl)-7,8-dihydro-6H-pyrrolo[2′,1′:2,3]imidazo[4,5-b]pyridin-6-ol]"
5,1000 to 10000 nM,"CC(C)(O)c1ccc(-c2ccc3nc4n(c3n2)C(c2cc(C(F)(F)F)ccc2C(F)(F)F)CC4O)cc1 (stereo not drawn) [Example 8 (DM), 8-(2,5-bis(trifluoromethyl)phenyl)-2-(4-(2-hydroxypropan-2-yl)phenyl)-7,8-dihydro-6H-pyrrolo[2′,1′:2,3]imidazo[4,5-b]pyridin-6-ol]"
6,< 1000 nM,"CC(C)(O)c1ccc(-c2ccc3nc4n(c3n2)C(c2ccccc2C2CC2)CC4O)cc1 (stereo not drawn) [Example 9 (e1), 8-(2-cyclopropylphenyl)-2-(4-(2-hydroxypropan-2-yl)phenyl)-7,8-dihydro-6H-pyrrolo[2′,1′:2,3]imidazo[4,5-b]pyridin-6-ol]"
7,< 1000 nM,"OC1CC(c2ccccc2OC(F)F)n2c1nc1ccc(-c3cnc(N4CCOCC4)nc3)nc12 (stereo not drawn) [Example 10 (DM), 8-(2-(difluoromethoxy)phenyl)-2-(2-morpholinopyrimidin-5-yl)-7,8-dihydro-6H-pyrrolo[2′,1′:2,3]imidazo[4,5-b]pyridin-6-ol]"
8,< 1000 nM,"CC(C)(O)c1ncc(-c2ccc3nc4n(c3n2)C(c2ccccc2OC(F)F)CC4O)cn1 (stereo not drawn) [Example 11 (e1), 8-(2-(difluoromethoxy)phenyl)-2-(2-(2-hydroxypropan-2-yl)pyrimidin-5-yl)-7,8-dihydro-6H-pyrrolo[2′,1′:2,3]imidazo[4,5-b]pyridin-6-ol]"
9,1000 to 10000 nM,"CC(C)(O)c1ncc(-c2ccc3nc4n(c3n2)C(c2ccccc2OC(F)F)CC4O)cn1 (stereo not drawn) [Example 11 (e4), 8-(2-(difluoromethoxy)phenyl)-2-(2-(2-hydroxypropan-2-yl)pyrimidin-5-yl)-7,8-dihydro-6H-pyrrolo[2′,1′:2,3]imidazo[4,5-b]pyridin-6-ol]"
10,< 1000 nM,"CC(C)(O)c1ccc(-c2ccc3nc4n(c3n2)C(c2ccccc2OC(F)F)CC4F)cc1 (stereo not drawn) [Example 15 (DM), 2-(4-(8-(2-(difluoromethoxy)phenyl)-6-fluoro-7,8-dihydro-6H-pyrrolo[2′,1′:2,3]imidazo[4,5-b]pyridin-2-yl)phenyl)propan-2-ol]"
11,< 1000 nM,"CC(C)(O)c1ccc(-c2ccc3nc4n(c3n2)C(c2ccccc2OC(F)F)CC4F)cc1 (stereo not drawn) [Example 15 (e1), 2-(4-(8-(2-(difluoromethoxy)phenyl)-6-fluoro-7,8-dihydro-6H-pyrrolo[2′,1′:2,3]imidazo[4,5-b]pyridin-2-yl)phenyl)propan-2-ol]"
12,10000 to 25000 nM,"CC(C)(O)c1ccc(-c2ccc3nc4n(c3n2)C(c2ccccc2OC(F)F)CC4F)cc1 (stereo not drawn) [Example 15 (e4), 2-(4-(8-(2-(difluoromethoxy)phenyl)-6-fluoro-7,8-dihydro-6H-pyrrolo[2′,1′:2,3]imidazo[4,5-b]pyridin-2-yl)phenyl)propan-2-ol]"
13,< 1000 nM,"CC(C)(O)c1ncc(-c2ccc3nc4n(c3n2)C(c2ccccc2OC(F)F)CC4F)cn1 (stereo not drawn) [Example 16 (DM), 2-(5-(8-(2-(difluoromethoxy)phenyl)-6-fluoro-7,8-dihydro-6H-pyrrolo[2′,1′:2,3]imidazo[4,5-b]pyridin-2-yl)pyrimidin-2-yl)propan-2-ol]"
14,< 1000 nM,"CC(C)(O)c1ncc(-c2ccc3nc4n(c3n2)C(c2ccccc2OC(F)F)CC4F)cn1 (stereo not drawn) [Example 16 (e2), 2-(5-(8-(2-(difluoromethoxy)phenyl)-6-fluoro-7,8-dihydro-6H-pyrrolo[2′,1′:2,3]imidazo[4,5-b]pyridin-2-yl)pyrimidin-2-yl)propan-2-ol]"
15,10000 to 25000 nM,"CC(C)(O)c1ncc(-c2ccc3nc4n(c3n2)C(c2ccccc2OC(F)F)CC4F)cn1 (stereo not drawn) [Example 16 (e3), 2-(5-(8-(2-(difluoromethoxy)phenyl)-6-fluoro-7,8-dihydro-6H-pyrrolo[2′,1′:2,3]imidazo[4,5-b]pyridin-2-yl)pyrimidin-2-yl)propan-2-ol]"
16,< 1000 nM,"CC(C)(O)c1ncc(-c2ccc3nc4n(c3n2)C(c2ccccc2OC(F)F)CC4F)cn1 (stereo not drawn) [Example 16 (e4), 2-(5-(8-(2-(difluoromethoxy)phenyl)-6-fluoro-7,8-dihydro-6H-pyrrolo[2′,1′:2,3]imidazo[4,5-b]pyridin-2-yl)pyrimidin-2-yl)propan-2-ol]"
17,< 1000 nM,"FC(F)Oc1ccccc1C1CC(F)c2nc3ccc(-c4cnc(N5CCOCC5)nc4)nc3n21 (stereo not drawn) [Example 17 (DM), 4-(5-(8-(2-(difluoromethoxy)phenyl)-6-fluoro-7,8-dihydro-6H-pyrrolo[2′,1′:2,3]imidazo[4,5-b]pyridin-2-yl)pyrimidin-2-yl)morpholine]"
18,1000 to 10000 nM,"COc1ccc(-c2ccc3nc4n(c3n2)C(c2ccccc2OC(F)F)CC4F)cn1 (stereo not drawn) [Example 18 (DM), 8-(2-(difluoromethoxy)phenyl)-6-fluoro-2-(6-methoxypyridin-3-yl)-7,8-dihydro-6H-pyrrolo[2′,1′:2,3]imidazo[4,5-b]pyridine]"
19,1000 to 10000 nM,"Cn1cc(-c2ccc3nc4n(c3n2)C(c2ccccc2OC(F)F)CC4F)cn1 (stereo not drawn) [Example 19 (e3), 8-(2-(difluoromethoxy)phenyl)-6-fluoro-2-(1-methyl-1H-pyrazol-4-yl)-7,8-dihydro-6H-pyrrolo[2′,1′:2,3]imidazo[4,5-b]pyridine]"
20,< 1000 nM,"Cc1ccc(C)c(C2CC(F)c3nc4ccc(-c5cnc(C(C)(C)O)nc5)nc4n32)c1 (stereo not drawn) [Example 20 (DM), 2-(5-(8-(2,5-dimethylphenyl)-6-fluoro-7,8-dihydro-6H-pyrrolo[2′,1′:2,3]imidazo[4,5-b]pyridin-2-yl)pyrimidin-2-yl)propan-2-ol]"
21,1000 to 10000 nM,"CC(C)(O)c1ccc(-c2ccc3nc4n(c3n2)C(c2ccccc2C2CC2)CC4F)cc1 (stereo not drawn) [Example 21 (e3), 2-(4-(8-(2-cyclopropylphenyl)-6-fluoro-7,8-dihydro-6H-pyrrolo[2′,1′:2,3]imidazo[4,5-b]pyridin-2-yl)phenyl)propan-2-ol]"
22,1000 to 10000 nM,"CC(C)(O)c1ccc(-c2ccc3nc4n(c3n2)C(c2ccccc2OC(F)(F)F)CC4F)cc1 (stereo not drawn) [Example 22 (e3), 2-(4-(6-fluoro-8-(2-(trifluoromethoxy)phenyl)-7,8-dihydro-6H-pyrrolo[2′,1′:2,3]imidazo[4,5-b]pyridin-2-yl)phenyl)propan-2-ol]"
23,< 1000 nM,"CC(C)(O)c1ccc(-c2ccc3nc4n(c3n2)C(c2c(F)cccc2C(F)(F)F)CC4F)cc1 (stereo not drawn) [Example 23 (e1), 2-(4-(6-fluoro-8-(2-fluoro-6-(trifluoromethyl)phenyl)-7,8-dihydro-6H-pyrrolo[2′,1′:2,3]imidazo[4,5-b]pyridin-2-yl)phenyl)propan-2-ol]"
24,< 1000 nM,"CC(C)(O)c1ccc(-c2ccc3nc4n(c3n2)C(c2cc(F)ccc2C(F)(F)F)CC4F)cc1 (stereo not drawn) [Example 24 (DM), 2-(4-(6-fluoro-8-(5-fluoro-2-(trifluoromethyl)phenyl)-7,8-dihydro-6H-yrrolo[2′,1′:2,3]imidazo[4,5-b]pyridin-2-yl)phenyl)propan-2-ol]"
25,1000 to 10000 nM,"CC(C)(O)c1ccc(-c2ccc3nc4n(c3n2)C(c2cc(F)ccc2C(F)(F)F)CC4F)cc1 (stereo not drawn) [Example 24 (e3), 2-(4-(6-fluoro-8-(5-fluoro-2-(trifluoromethyl)phenyl)-7,8-dihydro-6H-yrrolo[2′,1′:2,3]imidazo[4,5-b]pyridin-2-yl)phenyl)propan-2-ol]"
26,< 1000 nM,"CC(C)(O)c1ccc(-c2ccc3nc4n(c3n2)C(c2cc(F)ccc2C(F)(F)F)CC4F)cc1 (stereo not drawn) [Example 24 (e4), 2-(4-(6-fluoro-8-(5-fluoro-2-(trifluoromethyl)phenyl)-7,8-dihydro-6H-yrrolo[2′,1′:2,3]imidazo[4,5-b]pyridin-2-yl)phenyl)propan-2-ol]"
27,< 1000 nM,"COc1ccccc1C1CCc2nc3ccc(-c4ccc(C(C)(C)O)cc4)nc3n21 (stereo not drawn) [Example 31 (e1), 2-(4-(8-(2-methoxyphenyl)-7,8-dihydro-6H-pyrrolo[2′,1′:2,3]imidazo[4,5-b]pyridin-2-yl)phenyl)propan-2-ol]"
28,< 1000 nM,"Cc1ccc(C)c([C@H]2CCc3nc4ccc(-c5cnc(C(C)(C)O)nc5)nc4n32)c1 [Example 36, (R)-2-(5-(8-(2,5-Dimethylphenyl)-7,8-dihydro-6H-pyrrolo[2′,1′:2,3]imidazo[4,5-b]pyridin-2-yl)pyrimidin-2-yl)propan-2-ol]"
29,< 1000 nM,"Cc1ccc(C)c([C@H]2CCc3nc4ccc(-c5ccc(C(C)(C)O)cc5)nc4n32)c1 [Example 37, (R)-2-(4-(8-(2,5-dimethylphenyl)-7,8-dihydro-6H-pyrrolo[2′,1′:2,3]imidazo[4,5-b]pyridin-2-yl)phenyl)propan-2-ol]"
30,1000 to 10000 nM,"Cc1ccc(C)c([C@H]2CCc3nc4ccc(-c5ccc(N6CCN(C)CC6)cc5)nc4n32)c1 [Example 38, (R)-8-(2,5-dimethylphenyl)-2-(4-(4-methylpiperazin-1-yl)phenyl)-7,8-dihydro-6H-pyrrolo[2′,1′:2,3]imidazo[4,5-b]pyridine]"
